Where a name gives a salt, the structure may show the parent alone. Read-outs that look alike come from different tables or passages of the source.
How the values were obtained:
[1] = tested on: fibrin-induced microglia activation; assay: Image-based assay of fibrin-induced microglia activation (HTS and dose response); assay type: cell-based, rat; details: for inhibition at 10 µM: Rattus norvegicus, Microglia, read-out: Fibrin % inhibition
[2] = tested on: LPS-induced microglia activation; assay: Image-based assay of LPS-induced microglia activation (HTS and dose response); assay type: cell-based, rat
[3] = tested on: fibrin- and LPS-induced microglia activation; assay: cells; assay type: cell-based, rat
[4] = primary HTS, 10 μM, fibrin-stimulated primary microglia
[5] = Rattus norvegicus, Microglia, primary HTS, 10 μM, LPS-stimulated primary microglia; read-out: LPS % inhibition
[6] = primary microglia HTS, fibrin stimulation, cell size >800 μm2 as marker of activation
[7] = Rattus norvegicus, Microglia, 48 h; read-out: LPS % inhibition
[8] = classification by fibrin and LPS inhibition in HTS
[9] = Rattus norvegicus, Microglia, read-out: LPS % inhibition
[10] = primary microglia HTS, fibrin stimulation, compounds at 10 μM
[11] = Rattus norvegicus, Microglia, primary microglia HTS, LPS stimulation, compounds at 10 μM; read-out: LPS % inhibition
[12] = quadrant by fibrin and LPS inhibition, HTS at 10 μM
[13] = Rattus norvegicus, Microglia, 48 h, read-out: LPS % inhibition
[14] = classification by fibrin and LPS inhibition, HTS at 10 μM

In the case of `C[C@]12CCC(=O)C=C1C=C[C@@H]1[C@@H]2CC[C@@]2(C)[C@H]1CC[C@@]2(O)CCC(=O)O` [Canrenoic Acid, Potassium Salt], the inhibition at 10 µM [1, 4] is reported as -8%, the inhibition at 10 µM [2, 5] is reported as 8% and the “Quadrant (FIG. 5b)” value ([3]; primary HTS, 10 μM) is reported as “Q4”. The “LPS % cell toxicity” value (primary rat microglia; rat) was 0%.
With `O=NN(CCCl)C(=O)NCCCl` [Carmustine] the inhibition at 10 µM [1, 4] was 1%, the inhibition at 10 µM [2, 5] was 9% and the “Quadrant (FIG. 5b)” value ([3]; primary HTS, 10 μM) was “Q4”. For the same molecule, the “LPS % cell toxicity” value (primary rat microglia; rat) was 0%.
`CCN1CCN(C(=O)N[C@@H](C(=O)N[C@@H]2C(=O)N3[C@@H]2SC(C)(C)[C@@H]3C(=O)O)c2ccccc2)C(=O)C1=O` [Piperacillin Sodium] was tested, and the inhibition at 10 µM [1, 6] was -25%, the inhibition at 10 µM [2, 7] was 17% and the “Quadrant (FIG. 5b)” value [3, 8] was “Q4”. For the same molecule, the “LPS % cell toxicity” value (primary rat microglia; rat) was 0%.
With `O=C(CCCN1CCC(O)(c2ccc(Br)cc2)CC1)c1ccc(F)cc1` [Bromperidol] the inhibition at 10 µM [1, 4] was -6%, the inhibition at 10 µM [2, 5] was 7% and the “Quadrant (FIG. 5b)” value ([3]; primary HTS, 10 μM) was “Q4”. The “LPS % cell toxicity” value (primary rat microglia; rat) was 0%.
`Cn1c(=O)c2c(ncn2C)n(C)c1=O` [Caffeine] was tested, and the inhibition at 10 µM [1] was 2%, the inhibition at 10 µM [2, 9] was 10% and the “Quadrant (FIG. 5b)” value [3] was “Q4”. For the same molecule, the “LPS % cell toxicity” value (primary rat microglia; rat) was 0%.
With `NC(=O)NO` [Hydroxyurea] the inhibition at 10 µM ([1]; primary microglia HTS, fibrin stimulation, activation = cell size >800 μm2) was 1%, the inhibition at 10 µM ([2]; Rattus norvegicus, Microglia, 48 h, primary microglia HTS, LPS stimulation, activation = cell size >800 μm2; read-out: LPS % inhibition) was 25% and the “Quadrant (FIG. 5b)” value ([3]; quadrant by fibrin and LPS inhibition in HTS of 1907 compounds) was “Q4”. The “LPS % cell toxicity” value (primary rat microglia; rat) was 1%.
For `NCCS(=O)(=O)O` [2-Aminoethanesulfonic Acid], the inhibition at 10 µM [1, 10] was -13%, the inhibition at 10 µM [2, 11] was 19% and the “Quadrant (FIG. 5b)” value [3, 12] was “Q4”. For the same molecule, the “LPS % cell toxicity” value (primary rat microglia; rat) was 0%.
In the case of `OCCN(CCO)c1nc(N2CCCCC2)c2nc(N(CCO)CCO)nc(N3CCCCC3)c2n1` [Dipyridamole], the inhibition at 10 µM [1] is reported as 11%, the inhibition at 10 µM [2, 9] is reported as 6% and the “Quadrant (FIG. 5b)” value [3] is reported as “Q4”. For the same molecule, the “LPS % cell toxicity” value (primary rat microglia; rat) was 0%.
`CNCC(O)c1ccc(O)c(O)c1` (stereo not shown) [Racepinephrine] was tested, and the inhibition at 10 µM [1] was 27%, the inhibition at 10 µM [2, 13] was 29% and the “Quadrant (FIG. 5b)” value [3] was “Q4”. For the same molecule, the “LPS % cell toxicity” value (primary rat microglia; rat) was 0%.
`CC(Cc1ccccc1)(NC(=O)CN)c1ccccc1` (stereo not shown) [Remacemide Hydrochloride] was tested, and the inhibition at 10 µM [1] was -21%, the inhibition at 10 µM [2, 13] was 13% and the “Quadrant (FIG. 5b)” value [3] was “Q4”. The “LPS % cell toxicity” value (primary rat microglia; rat) was 0%.
For `CCc1cc(C(N)=S)ccn1` [Ethionamide], the inhibition at 10 µM [1] was 17%, the inhibition at 10 µM [2, 9] was 14% and the “Quadrant (FIG. 5b)” value [3] was “Q4”. The “LPS % cell toxicity” value (primary rat microglia; rat) was 0%.
In the case of `O=C(O[C@@H]1C[C@@H]2C[C@H]3C[C@H](C1)N2CC3=O)c1c[nH]c2ccccc12` [Dolasetron], the inhibition at 10 µM [1, 10] is reported as -19%, the inhibition at 10 µM [2, 11] is reported as -3% and the “Quadrant (FIG. 5b)” value [3, 14] is reported as “Q4”. For the same molecule, the “LPS % cell toxicity” value (primary rat microglia; rat) was 0%.
In the case of `CC1CNc2c(cccc2S(=O)(=O)N[C@@H](CCCNC(=N)N)C(=O)N2CC[C@@H](C)C[C@@H]2C(=O)O)C1` (stereo partly shown) [Argatroban], the inhibition at 10 µM [1, 10] is reported as -10%, the inhibition at 10 µM [2, 11] is reported as 8% and the “Quadrant (FIG. 5b)” value [3, 12] is reported as “Q4”. For the same molecule, the “LPS % cell toxicity” value (primary rat microglia; rat) was 0%.
For `CSc1ccc2c(c1)N(CCC1CCCCN1C)c1ccccc1S2` (stereo not shown) [Thioridazine hydrochloride, reference compound], the inhibition at 10 µM [1] was 116%, the inhibition at 10 µM [2, 13] was 118% and the Activity [3] was “fib/LPS”. The “Quadrant (FIG. 5b)” value [3] was “Q2” and the “LPS % cell toxicity” value (primary rat microglia; rat) was 73%.
In the case of `C1CCN2C[C@@H]3C[C@@H](CN4CCCC[C@@H]34)[C@H]2C1` [Sparteine Sulfate], the inhibition at 10 µM [1, 6] is reported as 7%, the inhibition at 10 µM [2, 7] is reported as 20% and the “Quadrant (FIG. 5b)” value [3, 8] is reported as “Q4”. For the same molecule, the “LPS % cell toxicity” value (primary rat microglia; rat) was 0%.
For `C[C@@H](c1ncncc1F)[C@](O)(Cn1cncn1)c1ccc(F)cc1F` [Voriconazole], the inhibition at 10 µM ([1]; primary microglia HTS, 10 μM, fibrin-stimulated, cell size >800 μm^2 as marker of activation) was -42%, the inhibition at 10 µM ([2]; Rattus norvegicus, Microglia, primary microglia HTS, 10 μM, LPS-stimulated, cell size >800 μm^2 as marker of activation; read-out: LPS % inhibition) was 5% and the “Quadrant (FIG. 5b)” value ([3]; HTS of 1907 compounds, quadrant by fibrin and LPS inhibition) was “Q4”. For the same molecule, the “LPS % cell toxicity” value (primary rat microglia; rat) was 0%.
`C[C@H](N[C@@H](CCc1ccccc1)C(=O)O)C(=O)N1CCC[C@H]1C(=O)O` [Enalaprilat] was tested, and the Fibrin % inhibition [1, 10] was 25%, the LPS % inhibition ([2]; primary microglia HTS, LPS stimulation, compounds at 10 μM) was 18% and the “Quadrant (FIG. 5b)” value [3, 14] was “Q4”. For the same molecule, the “LPS % cell toxicity” value (primary rat microglia) was 0%.
`CCCc1nn(C)c2c(=O)[nH]c(-c3cc(S(=O)(=O)N4CCN(C)CC4)ccc3OCC)nc12` [Sildenafil, Sildenafil Citrate] was tested, and the Fibrin % inhibition [1, 6] was 22%, the LPS % inhibition [2] was 20% and the “Quadrant (FIG. 5b)” value [3, 8] was “Q4”. The “LPS % cell toxicity” value (primary rat microglia) was 0%.

From US20210330611A1, “THERAPY FOR NEUROLOGICAL DISEASES/DISORDERS” (priority 2020, published 2021)
